# Patent US8207142B2, “Inhibitor of DNA methylation” (priority 2001, dated 2012)
# Assays:
# 10T1/2 cells = experiment: Colony-formation assay (plating efficiency) in 10T1/2 cells; type: cell-based, mouse; details: for Ave. Plating Efficiency (%): 250 cells, stained after 14-16 days, control 22; for decrease in plating deficiency (cytotoxicity) / cell death observed: 10T1/2 cells; for cell death observed: 0.3 μM 5-Aza-CdR, 3 μM 5-Aza-CR, 30 μM Zebularine
# Method: (§1) The percentage cell survival was assessed by dividing the mean colony number on the treated plates divided by the mean colony number on the untreated plates ×100.
# [1] = tested on: DNA methylation of the am^RIP and ψ63 sequences; experiment: Southern blot analysis of DNA methylation in N. crassa (Dpn II vs Sau3AI digests); type: cell-based, Neurospora crassa; details: 12 and 24 μM 5-AC; 0.33 and 3.3 μM TSA; 20, 39, 78, 160 and 310 μM Zebularine
# Method: DNA was digested with Dpn II (D) or Sau3AI (S), fractionated by gel electrophoresis, transferred to a membrane and probed for am (FIG. 4A) or ψ63 (FIG. 4B) sequences. Dpn II and Sau3AI both recognize the sequence GATC, but Sau3AI fails to cleave if the C residue is methylated. Thus, differences between S and D lanes are indicative of DNA methylation.
# The ramp symbols at the top of the figure represent increasing concentrations of drug. Drug concentrations were 12 and 24 μM 5-AC; 0.33 and 3.3 μM TSA; and 20, 39, 78, 160 and 310 μM Zebularine. The positions of selected size standards (kb) are indicated.
# Southern hybridizations were performed on DNA samples (−1 μg) isolated from liquid cultures inoculated with 7×10^4 conidia/ml. DNA was digested with Dpn II (D) or Sau3AI (S), fractionated by gel electrophoresis, transferred to a nylon membrane and probed for am^RIP (FIG. 4A) or ψ63 (FIG. 4B) sequences. The restriction endonucleases Dpn II and-Sau3AI both recognize the sequence GATC, but Sau3AI fails to cleave if the C residue is methylated. Drug concentrations were […] 5-AC, 0.33 and 3.3 μM TSA, and […] Zebularine.
# The positions of selected size standards (kb) and the origin (ori) are indicated. […] Differences between S and D lanes are indicative of DNA methylation.
# T24 cells = experiment: Colony-formation assay (decrease in plating efficiency) in T24 cells; type: cell-based, human
# Method: as §1
# [2] = tested on: p16 gene expression in T24 cells; experiment: RT-PCR analysis of p16 expression in T24 cells; type: cell-based, human
# Method: The T24 cell line was obtained from the American Type Culture Collection (Rockville, Md.) and cultured in DMEM supplemented with 10% heat-inactivated fetal calf serum and 100 U/ml penicillin-streptomycin. Cultures were grown in a humidified incubator at 37° C. in an atmosphere of 5% CO2 in air.
# Cells were plated (3×10^5 cells/100-mm dish) and treated 24 hours later with the indicated concentrations of compounds. The medium was either changed 24 hours or 48 hours after drug treatment.
# DNA and RNA were isolated three days after treatment using the NucleoBond RNA/DNA Midi Kit (Clontech Laboratories, Inc., Palo Alto, Calif.).
# Total RNA (˜10 μg) was reverse-transcribed using the following reagents: 100 units RNAsin (Promega Corp., Madison, Wis.), 0.1 M DTT (Life Technologies, Inc.), 1000 units of MMLV-RT (Life Technologies, Inc.), 1 mM deoxynucleotide triphosphates (Boehringer Mannheim, Germany), 75 μg/ml BSA, 1× MMLV-RT buffer (Life Technologies, Inc.), and 0.025 ODU Random Hexamers (Amersham-Pharmacia Biotech, Piscataway, N.J.). The reaction mixture was incubated for 10 minutes at 25° C., 45 minutes at 42° C., 3 minutes at 90° C., and chilled for 5 minutes at 4° C., during which time 1.25 μl of MMLV-RT (200 U/μl) were added and the sample then incubated for 45 minutes at 42° C., 10 minutes at 75° C., and stored at −20° C.
# cDNA was amplified with primers specific for either p16 or GAPDH. Briefly, PCR reactions were performed in 25-μl volumes at 94° C. for 3 minutes, 28 cycles at 94° C. for 1 minute, 56° C. for 30 seconds, 72° C. for 40 seconds, and a final extension step at 72° C. for 5 min (p16 amplification), and 94° C. for 1 minute, 19 cycles at 94° C. for 1 minute, 58° C. for 30 seconds, 72° C. for 45 seconds, and a final extension step at 72° C. for 2 minutes (GAPDH amplification).
# PCR amplifications were performed with cDNA template concentration equivalent to 100 ng of RNA in 10% DMSO. All reactions were analyzed in the linear range of amplification. PCR products were resolved on 2% agarose gels and subsequently transferred to a nylon membrane (Zetaprobe; Bio-Rad, Richmond, Calif.) under alkaline conditions. All blots were hybridized with a γ-^32P-labeled internal oligonucleotide probe, using protocols previously described (Xiong and Laird, Nuc. Acids Res. 25:2532-2534, 1997).
# Since 5-Aza-CdR has been shown previously to induce p16 expression in a dose-dependent manner (Bender et al., Cancer Res. 58:95-101, 1998), the two ribonucleoside analogs 5-Aza-CR and Zeb were examined to determine their abilities to induce p16 expression (FIG. 8). Because Zeb is stable in aqueous solution, the effect of prolonging Zeb treatment on p16 expression was tested by treating these cells with different concentrations of Zeb for either 24 hours or 48 hours. RT-PCR was then performed to determine whether p16 gene was induced by drug treatment.
compound,measurement,setting,value
"Nc1ncn([C@@H]2O[C@H](CO)[C@@H](O)[C@H]2O)c(=O)n1 [5-Aza-CR, 5-azacytidine, reference compound]",Ave. Plating Efficiency (%),10T1/2 cells; 1 μM,21%
same,decrease in plating deficiency (cytotoxicity),10T1/2 cells; 3 μM,24%
same,Ave. Plating Efficiency (%),10T1/2 cells; 3 μM,16%
same,cell death observed,10T1/2 cells,appreciable cell death
same,effect on DNA methylation (Southern blot),[1],inhibits DNA methylation globally
same,Toxicity (%) (decrease in plating efficiency),"T24 cells; 3 μM, 24 hrs",2%
same,Toxicity (%) (decrease in plating efficiency),"T24 cells; 10 μM, 24 hrs",12%
same,Toxicity (%) (decrease in plating efficiency),"T24 cells; 30 μM, 24 hrs",30%
same,Toxicity (%) (decrease in plating efficiency),"T24 cells; 100 μM, 24 hrs",54%
same,p16 expression (RT-PCR),[2]; 3 μM,no expression
same,p16 expression (RT-PCR),[2]; 100 μM,significant expression
same,highest p16 expression level relative to that with 3 μM 5-Aza-CdR,[2]; 100 μM 5-Aza-CR vs 3 μM 5-Aza-CdR,one-fifth
"O=c1ncccn1[C@@H]1O[C@H](CO)[C@@H](O)[C@H]1O [Zebularine, 1-β-ribofuranosyl-1,2-dihydropyrimidin-2-one]",Ave. Plating Efficiency (%),10T1/2 cells; 10 μM,20%
same,Ave. Plating Efficiency (%),10T1/2 cells; 30 μM,18%
same,decrease in plating deficiency (cytotoxicity),10T1/2 cells,17%
same,cell death observed,10T1/2 cells,only very little cell death
same,effect on DNA methylation (Southern blot),[1],inhibits DNA methylation globally
same,Toxicity (%) (decrease in plating efficiency),"T24 cells; 300 μM, 24 hrs",1%
same,Toxicity (%) (decrease in plating efficiency),"T24 cells; 300 μM, 48 hrs",2%
same,Toxicity (%) (decrease in plating efficiency),"T24 cells; 500 μM, 24 hrs",7%
same,Toxicity (%) (decrease in plating efficiency),"T24 cells; 500 μM, 48 hrs",8%
same,Toxicity (%) (decrease in plating efficiency),"T24 cells; 1000 μM (1 mM), 48 hrs",23%
same,Toxicity (%) (decrease in plating efficiency),"T24 cells; 1000 μM, 24 hrs",18%
same,p16 expression (RT-PCR),[2]; 300 μM for 24 hours,insufficient to induce p16 expression
same,p16 expression (RT-PCR),[2]; 300 μM for 48 hours,p16 expression was induced
same,p16 expression (RT-PCR),[2]; 500 μM for 24 hours,p16 expression was induced
